From patent US20130017198A1, “MANIPULATION OF CALCIUM CHANNELS TO REGULATE AFTER-DEPOLARIZATION EVENTS IN CARDIAC MYOCYTES” (THE UAB RESEARCH FOUNDATION, priority 2010, published 2013)
Entries after “also recorded” stand apart in the source; their conditions may differ. Where two headings read alike, the source gives them in different places.

Key:
[1] = tested on: isolated rat cardiac muscle; assay: After-contractions in isolated rat cardiac muscle incubated with ATX-II and CPLA2 inhibitors; settings: for IC50: isolated rat cardiac muscle incubated with ATX-II, read-out: IC50 (frequency of aftercontractions)
Method: In a separate experiment, isolated rat cardiac muscle was incubated with ATX-II in the presence of varying concentrations of amylcinnamoyl-anthranilic acid.

[2] = tested on: left atrial appendage (LAA); assay: Action potential recording / after-depolarization in paced superfused rat LAA exposed to ATX-II; settings: for action potential duration: ~30 nM ATX-II plus LOE-908 or SKF-96365
Source text: For example, isolated superfused muscles can be impaled with conventional glass microelectrodes of 10 to 30 MΩ resistance; these microelectrodes are filled with a solution of 3 M potassium chloride. Microelectrodes are routinely mounted on 30 μm silver-silver chloride spiral wire to allow for freedom of motion. Following the successful impalement of an individual myocyte, action potentials can be recorded with DC coupling at the center of the ring as the difference in voltage between the intracellular microelectrode and the extracellular silver-silver chloride reference electrode. Electrical signals are passed through a high-impedance capacitance-compensation preamplifier and are recorded on a personal computer at a sampling rate of […]. Subsequent data analysis of the action potentials of these muscles is performed using standard software (for an example of such a protocol, see Huang J et al., “Restitution properties during ventricular fibrillation in the in situ swine heart” Circulation 110:3161-3167 (2004), which is hereby incorporated by reference only for such teaching).
(§1) To determine whether ATX-II prolongs action potential duration and provokes after-depolarization and after-contractions, paced isolated rat LAA were superfused at 30° C., impaled with glass microelectrodes, and their action potentials were recorded. ATX-II was then added to the superfusate at about 30 nM and action potentials were recorded again.
(§2) A series of experiments was performed to test the hypothesis that the calcium source for after-depolarization is the ARC channel. To test whether after-contractions and after-depolarization require ARC or SOCC activity, experiments were performed with the ARC channel inhibitor LOE-908 and with the SOCC inhibitor SKF-96365. Rat LAA were superfused at 30° C. and exposed to ˜30 nM ATX-II. After 10-15 minutes, these muscles produced steady-state after-contractions, prolonged action potential duration and after-depolarization as shown previously.

[3] = tested on: left atrial appendage (LAA); assay: ATX-II-induced after-contractions (mechanical activity) in paced superfused rat left atrial appendage
Method: as §1
The LAA was externally paced at 1 Hz throughout.
as §2, with “ATX-II.” for “ATX-II. After 10-15 minutes, these muscles produced steady-state after-contractions, prolonged action potential duration and after-depolarization as shown previously.”

[4] = tested on: left atrial appendage (LAA); assay: Abnormal automatic activity produced by 2-aminoethoxy diphenylborate (SOCC activator) in calcium-loaded LAA; settings: calcium-loaded LAA treated with 2-aminoethoxy diphenylborate
Method: To further test the hypothesis that the calcium source for after-depolarization is not the SOCC, calcium-loaded LAA were treated with 2-aminoethoxy diphenylborate (an activator of the SOCC) to produce abnormal automatic activity. The LAA were then treated with either LOE-908 or SKF-96365.

[5] = tested on: left atrial appendage (LAA); assay: Abnormal automatic activity of LAA at high ATX-II concentration; parameters: species or system rat
Method: Although moderate concentrations of ATX-II appear to cause after-contractions, high concentrations of ATX-II cause abnormal automatic activity. To further test the hypothesis that after-contractions occur via a separate mechanism from abnormal automatic activity, LAA were exposed to high concentrations (60 nM) of ATX-II. The LAA were then exposed to one of 40 μM LOE-908 without pacing, 20 μM SKF-96365 with 1 Hz pacing, or 40 μM SKF-96365 with 1 Hz pacing.

ARC channel = biological target: T1, ARC channel (Rattus norvegicus, UniProt Q5M848+Q6AXR8); assay: Effect on ARC channel activity
T1 construct: from tissue; host or cells: rat left atrial appendage (LAA) muscle

[6] = biological target: T2, store-operated calcium channel (SOCC) (Rattus norvegicus, UniProt Q5M848); assay: Effect on store-operated calcium channel activity
T2 construct: from tissue; host or cells: rat left atrial appendage (LAA) muscle

CPLA2 activity in vivo = settings: cited from earlier work
CPLA2 = biological target: T3, CPLA2 (Homo sapiens, UniProt P47712); settings: selective inhibitor of CPLA2; cited from earlier work
T3 sequence (P47712 1-749): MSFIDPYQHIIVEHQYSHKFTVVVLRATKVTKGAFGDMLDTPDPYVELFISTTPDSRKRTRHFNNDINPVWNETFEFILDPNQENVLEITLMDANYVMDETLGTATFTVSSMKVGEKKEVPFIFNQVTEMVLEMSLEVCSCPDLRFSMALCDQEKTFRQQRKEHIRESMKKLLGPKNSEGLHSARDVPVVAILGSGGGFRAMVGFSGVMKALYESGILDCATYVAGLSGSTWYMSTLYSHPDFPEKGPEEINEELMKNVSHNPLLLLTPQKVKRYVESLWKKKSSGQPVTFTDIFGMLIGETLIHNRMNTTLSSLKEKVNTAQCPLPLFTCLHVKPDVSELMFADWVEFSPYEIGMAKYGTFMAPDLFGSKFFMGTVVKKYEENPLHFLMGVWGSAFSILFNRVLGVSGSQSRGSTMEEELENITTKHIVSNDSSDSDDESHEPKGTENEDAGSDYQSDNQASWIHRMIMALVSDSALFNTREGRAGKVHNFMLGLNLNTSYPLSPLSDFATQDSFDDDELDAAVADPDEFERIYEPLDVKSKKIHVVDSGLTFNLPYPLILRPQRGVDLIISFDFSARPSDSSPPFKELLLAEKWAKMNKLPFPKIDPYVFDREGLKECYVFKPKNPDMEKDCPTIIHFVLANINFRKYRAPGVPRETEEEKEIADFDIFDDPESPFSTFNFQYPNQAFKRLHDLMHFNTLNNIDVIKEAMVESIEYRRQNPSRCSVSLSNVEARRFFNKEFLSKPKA

[7] = LAA pre-treated with the compound, then ATX-II
[8] = increasing concentrations, ~30 nM ATX-II, data not shown
[9] = increasing concentrations, ~30 nM ATX-II, rat LAA at 30° C.
[10] = 0.6 μM ryanodine, after steady-state ATX-II after-contractions

T1 sequence (Q5M848 whole entry, other chains not shown): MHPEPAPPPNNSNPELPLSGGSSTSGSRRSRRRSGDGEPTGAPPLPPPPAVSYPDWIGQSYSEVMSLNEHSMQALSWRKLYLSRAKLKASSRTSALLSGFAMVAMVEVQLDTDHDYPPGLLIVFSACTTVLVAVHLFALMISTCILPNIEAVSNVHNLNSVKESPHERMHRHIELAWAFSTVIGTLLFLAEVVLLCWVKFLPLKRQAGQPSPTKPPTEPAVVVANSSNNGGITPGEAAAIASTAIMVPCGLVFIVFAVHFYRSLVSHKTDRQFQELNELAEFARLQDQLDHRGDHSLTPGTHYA
T2 sequence (Q5M848 whole entry): as the sequence (Q5M848 whole entry, other chains not shown) above

**Q.** What does the source list for COc1cccc2c1cc([N+](=O)[O-])c1c(C(=O)O)cc3c(c12)OCO3 [aristolochic acid, 8-methoxy-6-nitrophenanthro[3,4-d][1,3]dioxole-5-carboxylic acid]?
**A.** after contractions [1]: suppress after contractions; IC50 [1]: 31 ± 5 µM; after-depolarization [2]: effectively inhibit after-depolarization; also recorded: suppress after-depolarization

**Q.** For COc1ccc(S(=O)(=O)N(CCO)c2ccccc2CN(C)C/C=C/c2ccc(Cl)cc2)cc1 [KN-93], which after-contractions [3, 7] is on record?
**A.** do not produce after-contractions; also recorded: suppression of after-contractions

**Q.** With COc1ccc(CCN(C)CCCC(C#N)(c2ccc(OC)c(OC)c2)C(C)C)cc1OC (stereo not drawn) [verapamil] as the compound, how does the production of after-contractions ([3]; 10 μM verapamil, paced at 1 Hz, steady-state ATX-II after-contractions) read?
**A.** did not affect the production of after-contractions

**Q.** Which “rate of spontaneous contractions caused by activation of the SOCC” value [4] does the source give for COc1ccc(CCCOC(Cn2ccnc2)c2ccc(OC)cc2)cc1 (stereo not drawn) [SKF-96365] here?
**A.** reduces the rate of spontaneous contractions

**Q.** And the after-depolarization [2, 8]?
**A.** The same was observed

**Q.** What about the action potential duration [2] of the same compound?
**A.** remained prolonged

**Q.** And the abnormal automatic activity ([5]; 60 nM ATX-II, 20 μM or 40 μM SKF-96365 with 1 Hz pacing)?
**A.** either reduced or eliminated abnormal automatic activity

**Q.** And the after-contractions [3, 9]?
**A.** suppressed after-contractions in a dose-dependent manner

**Q.** What does the source list for CCCCCc1ccc(/C=C/C(=O)Nc2ccccc2C(=O)O)cc1 [ACA]?
**A.** after contractions [1]: suppress after contractions; concentration as low as which after contractions are suppressed [1]: 10 µM; frequency of aftercontractions ([1]; 0-50 μM of ACA): decrease with increasing concentration; IC50 [1]: 10 ± 4.5 µM; after-depolarization [2]: suppress after-depolarization; concentration as low as which after-depolarization is suppressed [2]: 10 µM; after-depolarization ([2]; listed as amylcinnamoyl-anthranilic acid): effectively inhibit after-depolarization

**Q.** Which results are given for methyl-β-cyclodextrin?
**A.** ARC channel activity (ARC channel): completely suppresses ARC channel activity; concentration as low as which after-depolarization is effectively eliminated [2]: 10 mM; store-operated calcium channel (SOCC) activity [6]: only reducing the activity of the SOCC to a minor degree; after-contractions ([3]; 10 mM MβC superfusion then wash, ~30 nM ATX-II, 20 min recording): produced no after-contractions; concentration as low as which ectopic contractions are effectively eliminated ([3]; cardiac muscle): 10 mM

**Q.** Which results are given for O=C(CCc1ccc(OCCS(=O)(=O)CCOC(c2ccc(Cl)cc2)c2ccc(Cl)cc2)cc1)C(F)(F)F [BMS-229724, 4-[4-[2-[2-[bis(4-chlorophenyl)methoxy]ethyl-sulfonyl]ethoxy]phenyl]-1,1,1-trifluoro-2-butanone]?
**A.** CPLA2 activity in vivo / skin inflammation (CPLA2 activity in vivo): suppression of skin inflammation; IC50 (CPLA2): 2.8 µM

**Q.** For COc1ccc(S(=O)(=O)Nc2ccccc2CN(C)C/C=C/c2ccc(Cl)cc2)cc1 [KN-92], which after-contractions [3, 7] is on record?
**A.** does not prevent after-contractions; also recorded: does not suppress after-contractions

**Q.** For COc1cc2c(cc1OC)C(C(C(=O)N(CCc1ccc(OC)c(OC)c1OC)CCc1ccc(OC)c(OC)c1OC)c1ccccc1)=NCC2 (stereo not drawn) [LOE-908], which ARC channel activity (ARC channel) is on record?
**A.** inhibit the activity of the ARC channel

**Q.** And the “concentration as low as which after-depolarization is effectively reduced” value [2]?
**A.** 1 µM

**Q.** What about the after-depolarization ([2]; 20 μM) of the same compound?
**A.** no after-depolarization is observed

**Q.** And the after-depolarization [2, 8]?
**A.** The same was observed

**Q.** And the action potential duration [2]?
**A.** remained prolonged

**Q.** And the “store-operated calcium channel (SOCC) activity” value [6]?
**A.** no effect on the activity of the store-operated calcium channel

**Q.** And the abnormal automatic activity ([5]; 60 nM ATX-II, 40 μM LOE-908 without pacing)?
**A.** failed to suppress abnormal automatic activity

**Q.** What about the ectopic contractions ([3]; 20 μM) of the same compound?
**A.** no ectopic contractions are observed

**Q.** And the “concentration as low as which ectopic contractions are effectively reduced” value ([3]; cardiac muscle)?
**A.** 1 µM

**Q.** And the after-contractions [3, 9]?
**A.** suppressed after-contractions in a dose-dependent manner

**Q.** With “ATX-II: Anemonia sulcata toxin, sodium channel regulator that increases the late sodium current; arrhythmic agent” as the compound, how does the “action potential duration and early after-depolarization” value ([2]; 30 nM ATX-II, paced isolated rat LAA superfused at 30° C.) read?
**A.** produced prolonged action potential duration and produced early after-depolarization during repolarization

**Q.** What about the “rate of rapid contraction in the absence of pacing” value ([5]; 60 nM ATX-II, FIG. 8A) of the same compound?
**A.** 4 Hz

**Q.** And the “rate of automatic activity persisting in the absence of pacing” value ([5]; 60 nM ATX-II, FIG. 8B)?
**A.** 2.7-3.3 Hz

**Q.** And the after-contractions ([5]; 60 nM ATX-II, left atria paced at 1 Hz)?
**A.** displayed after-contractions

**Q.** What about the abnormal automatic activity ([5]; higher concentration of ATX-II) of the same compound?
**A.** displayed abnormal automatic activity

**Q.** And the “concentration inducing arrhythmia and after-depolarization” value [3]?
**A.** 5 to 60 nM

**Q.** And the “after-contractions following each paced contraction” value ([3]; 30 nM ATX-II, LAA paced at 1 Hz)?
**A.** after-contractions are observed

**Q.** What about the “concentration below which the ability to induce arrhythmia starts to decrease” value ([3]; KH buffer with added glucose) of the same compound?
**A.** 10 to 50 nM

**Q.** With ryanodine as the compound, how does the after-contractions [3, 10] read?
**A.** after-contractions continued to occur

**Q.** And the mechanical force [3, 10]?
**A.** greatly diminished mechanical force
